Target: T1, Dopamine D2 receptor (hD2L) (Homo sapiens, UniProt P14416)
T1 construct: expressed in transfected cells; host or cells: CHO cells (CHO-hD2L)
Assay: Dopamine D2 Receptor Binding Assay ([3H]spiperone, CHO-hD2L membranes)
Conditions: [3H]spiperone 0.4 nM, membrane preparation from CHO-hD2L cells
From the text: The ability of the novel compounds of this invention to bind to the dopamine D2 receptor can be determined using conventional radioligand receptor binding assays. All receptors can be heterologously expressed in cell lines and binding assays can be conducted in membrane preparations from the cell lines using procedures outlined below. IC50 concentrations can be determined by nonlinear regression of concentration-dependent reduction in specific binding. The Cheng-Prussoff equation can be used to convert the IC50 to Ki concentrations.
[^3H]Spiperone binding to a membrane preparation from CHO-hD2L cells was carried out in 250 μl of 50 mM Tris-HCl buffer containing 100 mM NaCl, 1 mM MgCl2 and 1% DMSO at pH 7.4. Duplicate samples containing (in order of addition) the test compounds, 0.4 nM [^3H]spiperone and approximately 12 μg protein were incubated for 120 minutes at room temperature. Bound radioligand was separated by rapid filtration under reduced pressure through Whatman GF/B glass fiber filters previously treated with 0.3% polyethyleneimine. Radioactivity retained on the filter is determined by liquid scintillation spectrophotometry.

T1 sequence (P14416 whole entry): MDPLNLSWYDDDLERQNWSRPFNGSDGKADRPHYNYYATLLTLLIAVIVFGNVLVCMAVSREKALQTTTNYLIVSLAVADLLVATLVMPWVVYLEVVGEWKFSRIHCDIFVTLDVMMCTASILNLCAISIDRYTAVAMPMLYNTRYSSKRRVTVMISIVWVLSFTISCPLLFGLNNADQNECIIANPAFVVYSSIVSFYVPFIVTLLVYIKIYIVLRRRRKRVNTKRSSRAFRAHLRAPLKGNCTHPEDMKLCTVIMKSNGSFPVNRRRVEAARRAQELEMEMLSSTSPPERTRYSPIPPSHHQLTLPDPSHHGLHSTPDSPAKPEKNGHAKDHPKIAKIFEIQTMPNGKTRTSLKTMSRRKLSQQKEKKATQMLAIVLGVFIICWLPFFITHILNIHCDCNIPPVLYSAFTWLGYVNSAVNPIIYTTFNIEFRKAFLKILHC

Going from `O=C1CCCc2ccc(OCCCCN3CCN(c4cccc5c4CCCC5)CC3)nc2N1` [Example 5, 2-{4-[4-(5,6,7,8-Tetrahydro-naphthalen-1-yl)-piperazin-1-yl]-butoxy}-5,6,7,9-tetrahydro-pyrido[2,3-b]azepin-8-one] to `O=C1CCCc2ccc(OCCCCN3CCN(c4cccc5c4CCC5)CC3)nc2N1` [Example 6, 2-[4-(4-Indan-4-yl-piperazin-1-yl)-butoxy]-5,6,7,9-tetrahydro-pyrido[2,3-b]azepin-8-one], the Ki falls from 2.45 nM to 1 nM (2.5-fold).

Going from `O=C1NCCc2ccc(OCCCCN3CCN(c4cccc5c4OCCC5)CC3)nc2N1` [Example 17, 2-[4-(4-Chroman-8-yl-piperazin-1-yl)-butoxy]-5,6,7,9-tetrahydro-1,7,9-triaza-benzocyclohepten-8-one] to `O=C1CCCc2ccc(OCCCCN3CCN(c4cccc5c4OCCC5)CC3)nc2N1` [Example 4, 2-[4-(4-Chroman-8-yl-piperazin-1-yl)-butoxy]-5,6,7,9-tetrahydro-pyrido[2,3-b]azepin-8-one], the Ki rises from 1 nM to 2 nM (2-fold).

Going from `O=C1CCCc2ccc(OCCCCN3CCN(c4cccc(Cl)c4Cl)CC3)nc2N1` [Example 3, 2-{4-[4-(2,3-dichloro-phenyl)-piperaxin-1-yl]-butoxy}-5,6,7,9-tetrahydro-pyrido[2,3-b]azepin-8-one] to `O=C1NCCc2ccc(OCCCCN3CCN(c4cccc(Cl)c4Cl)CC3)nc2N1` [Example 14, 2-{4-[4-(2,3-Dichloro-phenyl)-piperazin-1-yl]-butoxy}-5,6,7,9-tetrahydro-1,7,9-triaza-benzocyclohepten-8-one], the Ki falls from 5.48 nM to 1 nM (5.5-fold).

`O=C1NCCc2ccc(OCCCN3CCN(c4cccc5ccccc45)CC3)cc2N1` [Example 43, 8-[3-(4-Naphthalen-1-yl-piperazin-1-yl)-propoxy]-1,3,4,5-tetrahydro-benzo[d][1,3]diazepin-2-one] and `O=C1NCCc2ccc(OCCCCN3CCN(c4cccc5ccccc45)CC3)cc2N1` [Example 32, 8-[4-(4-Naphthalen-1-yl-piperazin-1-yl)-butoxy]-1,3,4,5-tetrahydro-benzo[d][1,3]diazepin-2-one] are within 1.5-fold of each other in Ki: 3.24 nM for the first, 3.45 nM for the second.

Compared with `O=C1NCCc2ccc(OCCCCN3CCN(c4cccc5c4CCCC5)CC3)nc2N1` [Example 16, 2-{4-[4-(5,6,7,8-Tetrahydro-naphthalen-1-yl)-piperazin-1-yl]-butoxy}-5,6,7,9-tetrahydro-1,7,9-triaza-benzocyclohepten-8-one], `CN1C(=O)CCc2cccc(N3CCN(CCCCOc4ccc5c(n4)NC(=O)NCC5)CC3)c21` [Example 23, 2-{4-[4-(1-Methyl-2-oxo-1,2,3,4-tetrahydro-quinolin-8-yl)-piperazin-1-yl]-butoxy}-5,6,7,9-tetrahydro-1,7,9-triaza-benzocyclohepten-8-one] is 2.1-fold higher in Ki: 1.41 nM for the first, 3 nM for the second.

Going from `O=C1CCCc2ccc(OCCCCN3CCN(c4cccc5c4OCCCO5)CC3)nc2N1` [Example 9, 2-{4-[4-(3,4-Dihydro-2H-benzo[b][1,4]dioxepin-6-yl)-piperazin-1-yl]-butoxy}-5,6,7,9-tetrahydro-pyrido[2,3-b]azepin-8-one] to `O=C1CCCc2ccc(OCCCCN3CCN(c4cccc5c4OCC5)CC3)nc2N1` [Example 7, 2-{4-[4-(2,3-Dihydro-benzofuran-7-yl)-piperazin-1-yl]-butoxy}-5,6,7,9-tetrahydro-pyrido[2,3-b]azepin-8-one], the Ki rises from 2 nM to 3.46 nM (1.7-fold).

Compared with `CC1(C)Cc2ccc(OCCCN3CCN(c4cccc5ccccc45)CC3)cc2NC(=O)N1` [Example 60, 4,4-Dimethyl-8-[3-(4-naphthalen-1-yl-piperazin-1-yl)-propoxy]-1,3,4,5-tetrahydro-benzo[d][1,3]diazepin-2-one], `CC1(C)Cc2ccc(OCCCCN3CCN(c4cccc5ccccc45)CC3)cc2NC(=O)N1` [Example 59, 4,4-Dimethyl-8-[4-(4-naphthalen-1-yl-piperazin-1-yl)-butoxy]-1,3,4,5-tetrahydro-benzo[d][1,3]diazepin-2-one] is 3.1-fold lower in Ki: 9.38 nM for the first, 3 nM for the second. The second binds more tightly here.

`N#Cc1ccc2cccc(N3CCN(CCCCOc4ccc5c(n4)NC(=O)NCC5)CC3)c2c1` [Example 22, 8-{4-[4-(8-Oxo-6,7,8,9-tetrahydro-5H-1,7,9-triaza-benzocyclohepten-2-yloxy)-butyl]-piperazin-1-yl}-naphthalene-2-carbonitrile] and `COc1ccc2cccc(N3CCN(CCCCOc4ccc5c(n4)NC(=O)NCC5)CC3)c2c1` [Example 21, 2-{4-[4-(7-Methoxy-naphthalen-1-yl)-piperazin-1-yl]-butoxy}-5,6,7,9-tetrahydro-1,7,9-triaza-benzocyclohepten-8-one] are the same in Ki: 0.4 nM for the first, 0.4 nM for the second.

First: O=C1CCCc2ccc(OCCCCN3CCN(c4cccc5ccc(F)cc45)CC3)nc2N1 [Example 8, 2-{4-[4-(7-Fluoro-naphthalen-1-yl)-piperazin-1-yl]-butoxy}-5,6,7,9-tetrahydro-pyrido[2,3-b]azepin-8-one]
Second: N#Cc1ccc2cccc(N3CCN(CCCCOc4ccc5c(n4)NC(=O)CCC5)CC3)c2c1 [Example 10, 8-{4-[4-(8-Oxo-6,7,8,9-tetrahydro-5H-pyrido[2,3-b]azepin-2-yloxy)-butyl]-piperazin-1-yl}-naphthalene-2-carbonitrile]
The Ki of the first is 2.8-fold lower: 1 nM for the first, 2.79 nM for the second.

Compared with `O=C1NCCc2ccc(OCCCCN3CCN(c4cccc5nsnc45)CC3)cc2N1` [Example 39, 8-{4-[4-(2,1,3-benzothiadiazol-4-yl)piperazin-1-yl]butoxy}-1,3,4,5-tetrahydro-2H-1,3-benzodiazepin-2-one], `O=C1NCCc2ccc(OCCCCN3CCN(c4cccc5c4COCC5)CC3)cc2N1` [Example 45, 8-[4-(4-Isochroman-8-yl-piperazin-1-yl)-butoxy]-1,3,4,5-tetrahydro-benzo[d][1,3]diazepin-2-one] is 2.4-fold higher in Ki: 2.6 nM for the first, 6.14 nM for the second. The first binds more tightly here.

Compared with `CN1C(=O)CCc2cccc(N3CCN(CCCCOc4ccc5c(n4)NC(=O)CCC5)CC3)c21` [Example 11, 2-{4-[4-(1-Methyl-2-oxo-1,2,3,4-tetrahydro-quinolin-8-yl)-piperazin-1-yl]-butoxy}-5,6,7,9-tetrahydro-pyrido[2,3-b]azepin-8-one], `O=C1CCCc2ccc(OCCCCN3CCN(c4cccc5ccccc45)CC3)nc2N1` [Example 2, 2-[4-(4-Naphthalen-1-yl-piperazin-1-yl)-butoxy]-5,6,7,9-tetrahydro-pyrido[2,3-b]azepin-8-one] is 4.9-fold lower in Ki: 18.9 nM for the first, 3.87 nM for the second. The second binds more tightly here.

`CCc1cccc(N2CCN(CCCCOc3ccc4c(c3)NC(=O)NCC4)CC2)n1` [Example 33] and `CC(C)c1cccc(N2CCN(CCCCOc3ccc4c(c3)NC(=O)NCC4)CC2)n1` [Example 34, 8-{4-[4-(6-Isopropyl-pyridin-2-yl)-piperazin-1-yl]-butoxy}-1,3,4,5-tetrahydro-benzo[d][1,3]diazepin-2-one] are within 1.5-fold of each other in Ki: 2.83 nM for the first, 2.68 nM for the second.

First: O=C1NCCc2ccc(OCCCCN3CCN(c4ccc(F)cc4Cl)CC3)cc2N1 [Example 35, 8-{4-[4-(2-Chloro-4-fluoro-phenyl)-piperazin-1-yl]-butoxy}-1,3,4,5-tetrahydro-benzo[d][1,3]diazepin-2-one]
Second: Cc1c(F)ccc(N2CCN(CCCCOc3ccc4c(c3)NC(=O)NCC4)CC2)c1Cl [Example 30, 8-{4-[4-(2-Chloro-4-fluoro-3-methyl-phenyl)-piperazin-1-yl]-butoxy}-1,3,4,5-tetrahydro-benzo[d][1,3]diazepin-2-one]
The Ki of the first is 1.5-fold higher: 3 nM for the first, 2 nM for the second. The second binds more tightly here.

Going from `O=C1NCCc2ccc(OCCCCN3CCN(c4cccc5ccccc45)CC3)nc2N1` [Example 15, 2-[4-(4-Naphthalen-1-yl-piperazin-1-yl)-butoxy]-5,6,7,9-tetrahydro-1,7,9-triaza-benzocyclohepten-8-one] to `O=C1NCCc2ccc(OCCCCN3CCN(c4cccc5ccc(F)cc45)CC3)cc2N1` [Example 38, 8-{4-[4-(7-Fluoro-naphthalen-1-yl)-piperazin-1-yl]-butoxy}-1,3,4,5-tetrahydro-benzo[d][1,3]diazepin-2-one], the Ki rises from 1 nM to 2.22 nM (2.2-fold). The first binds more tightly here.

Compared with `Cc1cc(N2CCN(CCCCOc3ccc4c(c3)NC(=O)NCC4)CC2)c(Cl)cc1F` [Example 31, 8-{4-[4-(2-Chloro-4-fluoro-5-methyl-phenyl)-piperazin-1-yl]-butoxy}-1,3,4,5-tetrahydro-benzo[d][1,3]diazepin-2-one], `O=C1NCCc2ccc(OCCCCN3CCN(c4ccc(F)c(Cl)c4Cl)CC3)cc2N1` [Example 36, 8-{4-[4-(2,3-Dichloro-4-fluoro-phenyl)-piperazin-1-yl]-butoxy}-1,3,4,5-tetrahydro-benzo[d][1,3]diazepin-2-one] is 2-fold lower in Ki: 6 nM for the first, 3 nM for the second. The second binds more tightly here.

Compared with `O=C1NCCc2ccc(OCCCCN3CCN(c4cccc5c(F)cccc45)CC3)cc2N1` [Example 40, 8-{4-[4-(5-Fluoro-naphthalen-1-yl)-piperazin-1-yl]-butoxy}-1,3,4,5-tetrahydro-benzo[d][1,3]diazepin-2-one], `O=C1NCCc2ccc(OCCCCN3CCN(c4cccc5cccc(F)c45)CC3)cc2N1` [Example 42, 8-{4-[4-(8-Fluoro-naphthalen-1-yl)-piperazin-1-yl]-butoxy}-1,3,4,5-tetrahydro-benzo[d][1,3]diazepin-2-one] is 4.9-fold lower in Ki: 11.4 nM for the first, 2.32 nM for the second.

Going from `O=C1NCCc2ccc(OCCCN3CCN(c4cccc5ccc(F)cc45)CC3)cc2N1` [Example 44, 8-{3-[4-(7-Fluoro-naphthalen-1-yl)-piperazin-1-yl]-propoxy}-1,3,4,5-tetrahydro-benzo[d][1,3]diazepin-2-one] to `COc1ccc2cccc(N3CCN(CCCOc4ccc5c(c4)NC(=O)NCC5)CC3)c2n1` [Example 41, 8-{3-[4-(2-Methoxy-quinolin-8-yl)-piperazin-1-yl]-propoxy}-1,3,4,5-tetrahydro-benzo[d][1,3]diazepin-2-one], the Ki falls from 5.44 nM to 1.04 nM (5.2-fold). The second binds more tightly here.
